The values that follow are results of earlier work, collected in patent US8647680B2, “Methods and compositions for treatment of lesioned sites of body vessels” (Abbott Cardiovascular Systems Inc., priority 2006, dated 2014).

SMILES strings stand for the structures.

Series [1] concerns macrophage cells. To be noted: oral administration.

For `[N]=O` [nitric oxide], the solubility in water is 2000 to 3000 µM.

As for `N=C(N)NCCC[C@H](N)C(=O)O` [L-arginine], the “apoptosis of macrophage cells” value in series [1] is recorded as “increased apoptosis of macrophage cells”.
